Source: patent publication US20250262336A1, “[177LU] LUTETIUM-PSMA I&T COMPOSITION AND DOSIMETRY, KIT, METHOD OF MAKING, AND METHOD OF USING THEREOF” (Curium US LLC, priority 2023, published 2025)
Where “and” joins values, the source holds several entries; their conditions need not be identical. Equal entries are not always repeated.

Tests used:
[1] = Cycle 1 plasma PK (gamma counting of plasma, bi-exponential fit); type: in vivo, human
Description: Additionally, for PK assessment, whole blood samples were collected at six timepoints (Pre-Infusion, 1 h, 4 h, 24 h, 48 h, and 168 h) and processed to extract plasma. All plasma samples were gamma counted locally for analysis of pharmacokinetics.
PK plasma samples were collected at pre-Infusion, 1 h, 4 h, 24 h, 48 h, and 168 h, and counted for radioactivity. Blood samples were first centrifuged to extract plasma, and then the radioactivity in plasma was counted in a gamma counter.
Whole blood samples were collected as detailed in the protocol Schedule of Events i.e. pre-injection, and then at 1 h, 4 h, 24 h, 48 h, and 168 h post-injection. The samples were first centrifuged to separate plasma, and the radioactivity in the plasma was then measured using a gamma counter. Plasma concentrations were subsequently fitted with a bi-exponential function to derive outcome parameters such as the half-life and clearance rate of the radiopharmaceutical in the plasma.
For each sample, collect sufficient sample volume for triplicate aliquots to meet the measurement requirements of your institution's gamma counter and perform measurements according to standard procedure. Blood will be processed and plasma will be measured on the gamma counter, as described in the following subsections.
All blood samples drawn must be aliquoted 3 times, labeled appropriately, and stored per standard procedure for later measurement of plasma in the qualified gamma counter. All samples will be counted as a group for each patient for each Cycle, no later than 24 hours following the final sample collection.
Collect 5 ml of blood in a BD PPT system (Plasma Protein Preservation Tube-draw volume of 5 mL).
Centrifuge at 18-25° C. at 1100 g for 10 min. The resulting supernatant is designated plasma.
Gamma Counter Measurements: All patient samples must be counted for 60 seconds, with a counting energy window of 102-229 keV.

[2] = Cycle 1 biodistribution: SPECT/CT time-activity curves (fraction of injected activity); type: in vivo, human; conditions: excluding patient 42-030
Description: This Example presents the biodistribution, dosimetry, and pharmacokinetics (PK) results of a PK/Dosimetry sub-study performed as part of a Phase III trial. Twenty-seven (27) patients were administered a target activity of 7.4±10% GBq of ^177Lu-PSMA-I&T and underwent single photon emission computed tomography (SPECT)/computed tomography (CT) imaging at four timepoints (4 h, 24 h, 48 h, and 168 h). Image data was analysed to compute time-activity curves (TACs) and subsequently time-integrated activity coefficients (TIACs) in each organ of interest and in organs showing appreciable and meaningful ^177Lu-PSMA-I&T activity. Organ Level Internal Dose Assessment (OLINDA 2.2.3) was used to compute organ and whole body absorbed radiation doses for each patient.
All participating sites underwent a rigorous site setup process during which all dose calibrators, scanners, and gamma counters used in the sub-study were calibrated. Sites were allowed to enroll patients in the sub-study only after the completion and approval of all site setup processes by Invicro. Patients underwent SPECT/CT imaging, with anatomical coverage typically extending from the salivary glands to the pelvis, following the administration of a targeted 7.4±10% GBq of ^177Lu-PSMA-I&T at cycle 1. SPECT/CT imaging was performed at four timepoints: 4 h, 24 h, 48 h, and 168 h post-injection. Additionally, a subset of patients imaged at Cycle 1 (16 out of 27), were also imaged at Cycle 3 (Table 2).
Volume of interest (VOI) (kidneys, bladder, liver, lumbar vertebrae L2-L4, lacrimal glands, salivary glands [parotid and submandibular glands], and whole body) were delineated on each dataset by a trained image analyst. […]
Clearance of the radiopharmaceutical was derived from a data-appropriate fit of each organ's TAC. […] TIACs were calculated through analytical integration of the curve fit extrapolated to infinity. […] The remainder activity was determined by subtracting the cumulative organ TIACs from the whole body TIAC. […]

[3] = Cycle 1, plasma, patient 42-030 excluded

- AUC Total, Mean [1, 3]: 22.77 fIA/L × min
- AUC Total, max [1, 3]: 37.86 fIA/L × min
- AUC Total, median [1, 3]: 20.84 fIA/L × min
- AUC Total, min [1, 3]: 3.07 fIA/L × min
- Peak Concentration Value, Mean [1, 3]: 0.04 fIA/L
- Peak Concentration Value, max [1, 3]: 0.07 fIA/L
- Peak Concentration Value, median [1, 3]: 0.04 fIA/L
- Peak Concentration Value, min [1, 3]: 0.01 fIA/L
- Time of Peak Concentration [1, 3]: 33.00 min
- Time of Peak Concentration, Mean [1, 3]: 59.19 min
- Time of Peak Concentration, max [1, 3]: 127.00 min
- Time of Peak Concentration, median [1, 3]: 59.00 min
- Vc, Mean [1, 3]: 20.29 L
- Vc, max [1, 3]: 111.78 L
- Vc, median [1, 3]: 16.33 L
- Vc, min [1, 3]: 9.92 L
- time to peak, patient 80-007 ([1]; cycle 1, first post-administration sample acquired with a delay): 127 min
- whole body activity retention at 4 h, max [2]: 78%
- whole body activity retention at 4 h, min [2]: 24%
- whole body mean activity retention at 4 h [2]: 44%±13%
SMILES: O=C(O)CC[C@H](NC(=O)N[C@@H](CCCCNC(=O)CCCCCCC(=O)NCCCC[C@@H](NC(=O)[C@@H](Cc1ccccc1)NC(=O)[C@@H](Cc1ccc(O)c(I)c1)NC(=O)CC[C@H](C(=O)O)N1CCN(CC(=O)O)CCN(CC(=O)O)CCN(CC(=O)O)CC1)C(=O)O)C(=O)O)C(=O)O [^177Lu-PSMA-I&T, (3S,7 S,26R,29R,32R,37R)-29-benzyl-32-(4-hydroxy-3-iodobenzyl)-5,13,20,28,31,34-hexaoxo-37-(4,7,10-tris(carboxymethyl)-1,4,7,10-tetraazacyclododecan-1-yl)-4,6,12,21,27,30,33-heptaazaheptatriacontane-1,3,7,26,37-pentacarboxylic acid; lutetium-177 (III), metal not drawn]
- Time of Peak Concentration ([1]; Cycle 1, plasma, individual patients, time of first sample): 53.00 min and 60.00 min (6×) and 51.00 min (2×) and 58.00 min and 61.00 min (2×) and 50.00 min and 63.00 min and 57.00 min and 55.00 min and 52.00 min (2×) and 68.00 min and 71.00 min and 65.00 min and 33.00 min and 40.00 min and 69.00 min and 56.00 min and 127.00 min and 47.00 min
- Peak Concentration Value ([1]; Cycle 1, plasma, individual patients, value at first sample): 0.04 fIA/L (10×) and 0.03 fIA/L (4×) and 0.05 fIA/L (7×) and 0.01 fIA/L and 0.06 fIA/L (2×) and 0.02 fIA/L and 0.07 fIA/L (2×)
